Legend:
[1] = biological target: DNA-dependent protein kinase catalytic subunit (Homo sapiens, UniProt P78527)
[2] = biological target: Phosphatidylinositol 4,5-bisphosphate 3-kinase catalytic subunit alpha isoform (Homo sapiens, UniProt P42336); assay: Inhibition of PI3Kalpha after 80 mins
HeLa [3] = assay: Potentiation of ionising radiation-induced DNA damaging activity in human HeLa cells assessed as dose modification ratio at 0.1 uM treated 1 hr before ionising radiation challenge followed by washout measured after 6 to 8 days by Giemsa staining; assay type: functional
HeLa [4] = assay: Potentiation of ionising radiation-induced DNA damaging activity in human HeLa cells assessed as dose modification ratio at 0.5 uM treated 1 hr before ionising radiation challenge followed by washout measured after 6 to 8 days by Giemsa staining; assay type: functional

Chain of Phosphatidylinositol 4,5-bisphosphate 3-kinase catalytic subunit alpha isoform (P42336 whole entry, canonical isoform): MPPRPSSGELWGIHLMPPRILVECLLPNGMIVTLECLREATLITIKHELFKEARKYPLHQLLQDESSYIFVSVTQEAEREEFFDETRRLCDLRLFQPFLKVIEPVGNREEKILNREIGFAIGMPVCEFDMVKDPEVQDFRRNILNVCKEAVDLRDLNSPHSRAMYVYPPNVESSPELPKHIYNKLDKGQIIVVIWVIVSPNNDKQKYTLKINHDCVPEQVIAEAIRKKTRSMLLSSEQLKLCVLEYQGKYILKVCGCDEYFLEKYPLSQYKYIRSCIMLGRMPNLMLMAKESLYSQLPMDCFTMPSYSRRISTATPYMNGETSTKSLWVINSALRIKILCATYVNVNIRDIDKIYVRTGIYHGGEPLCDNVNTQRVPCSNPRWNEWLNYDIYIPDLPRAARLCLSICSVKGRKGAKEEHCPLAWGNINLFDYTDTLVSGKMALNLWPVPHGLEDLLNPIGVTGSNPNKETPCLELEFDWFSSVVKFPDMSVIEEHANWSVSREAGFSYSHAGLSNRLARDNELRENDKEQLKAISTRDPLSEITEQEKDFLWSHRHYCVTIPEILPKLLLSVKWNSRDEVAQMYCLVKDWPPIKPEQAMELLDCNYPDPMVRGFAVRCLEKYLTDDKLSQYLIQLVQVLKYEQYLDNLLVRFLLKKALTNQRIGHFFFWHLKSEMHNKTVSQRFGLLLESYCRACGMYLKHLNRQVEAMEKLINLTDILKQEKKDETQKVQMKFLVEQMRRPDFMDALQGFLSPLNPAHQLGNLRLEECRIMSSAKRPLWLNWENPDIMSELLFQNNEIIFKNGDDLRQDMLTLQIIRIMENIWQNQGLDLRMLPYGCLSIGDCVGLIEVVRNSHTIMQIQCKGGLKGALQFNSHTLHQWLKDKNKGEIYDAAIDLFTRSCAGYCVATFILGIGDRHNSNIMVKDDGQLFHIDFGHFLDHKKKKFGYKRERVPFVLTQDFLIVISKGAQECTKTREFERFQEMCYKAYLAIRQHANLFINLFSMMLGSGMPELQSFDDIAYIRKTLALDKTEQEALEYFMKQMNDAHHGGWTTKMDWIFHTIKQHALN
Chain of DNA-dependent protein kinase catalytic subunit (P78527 whole entry, canonical isoform): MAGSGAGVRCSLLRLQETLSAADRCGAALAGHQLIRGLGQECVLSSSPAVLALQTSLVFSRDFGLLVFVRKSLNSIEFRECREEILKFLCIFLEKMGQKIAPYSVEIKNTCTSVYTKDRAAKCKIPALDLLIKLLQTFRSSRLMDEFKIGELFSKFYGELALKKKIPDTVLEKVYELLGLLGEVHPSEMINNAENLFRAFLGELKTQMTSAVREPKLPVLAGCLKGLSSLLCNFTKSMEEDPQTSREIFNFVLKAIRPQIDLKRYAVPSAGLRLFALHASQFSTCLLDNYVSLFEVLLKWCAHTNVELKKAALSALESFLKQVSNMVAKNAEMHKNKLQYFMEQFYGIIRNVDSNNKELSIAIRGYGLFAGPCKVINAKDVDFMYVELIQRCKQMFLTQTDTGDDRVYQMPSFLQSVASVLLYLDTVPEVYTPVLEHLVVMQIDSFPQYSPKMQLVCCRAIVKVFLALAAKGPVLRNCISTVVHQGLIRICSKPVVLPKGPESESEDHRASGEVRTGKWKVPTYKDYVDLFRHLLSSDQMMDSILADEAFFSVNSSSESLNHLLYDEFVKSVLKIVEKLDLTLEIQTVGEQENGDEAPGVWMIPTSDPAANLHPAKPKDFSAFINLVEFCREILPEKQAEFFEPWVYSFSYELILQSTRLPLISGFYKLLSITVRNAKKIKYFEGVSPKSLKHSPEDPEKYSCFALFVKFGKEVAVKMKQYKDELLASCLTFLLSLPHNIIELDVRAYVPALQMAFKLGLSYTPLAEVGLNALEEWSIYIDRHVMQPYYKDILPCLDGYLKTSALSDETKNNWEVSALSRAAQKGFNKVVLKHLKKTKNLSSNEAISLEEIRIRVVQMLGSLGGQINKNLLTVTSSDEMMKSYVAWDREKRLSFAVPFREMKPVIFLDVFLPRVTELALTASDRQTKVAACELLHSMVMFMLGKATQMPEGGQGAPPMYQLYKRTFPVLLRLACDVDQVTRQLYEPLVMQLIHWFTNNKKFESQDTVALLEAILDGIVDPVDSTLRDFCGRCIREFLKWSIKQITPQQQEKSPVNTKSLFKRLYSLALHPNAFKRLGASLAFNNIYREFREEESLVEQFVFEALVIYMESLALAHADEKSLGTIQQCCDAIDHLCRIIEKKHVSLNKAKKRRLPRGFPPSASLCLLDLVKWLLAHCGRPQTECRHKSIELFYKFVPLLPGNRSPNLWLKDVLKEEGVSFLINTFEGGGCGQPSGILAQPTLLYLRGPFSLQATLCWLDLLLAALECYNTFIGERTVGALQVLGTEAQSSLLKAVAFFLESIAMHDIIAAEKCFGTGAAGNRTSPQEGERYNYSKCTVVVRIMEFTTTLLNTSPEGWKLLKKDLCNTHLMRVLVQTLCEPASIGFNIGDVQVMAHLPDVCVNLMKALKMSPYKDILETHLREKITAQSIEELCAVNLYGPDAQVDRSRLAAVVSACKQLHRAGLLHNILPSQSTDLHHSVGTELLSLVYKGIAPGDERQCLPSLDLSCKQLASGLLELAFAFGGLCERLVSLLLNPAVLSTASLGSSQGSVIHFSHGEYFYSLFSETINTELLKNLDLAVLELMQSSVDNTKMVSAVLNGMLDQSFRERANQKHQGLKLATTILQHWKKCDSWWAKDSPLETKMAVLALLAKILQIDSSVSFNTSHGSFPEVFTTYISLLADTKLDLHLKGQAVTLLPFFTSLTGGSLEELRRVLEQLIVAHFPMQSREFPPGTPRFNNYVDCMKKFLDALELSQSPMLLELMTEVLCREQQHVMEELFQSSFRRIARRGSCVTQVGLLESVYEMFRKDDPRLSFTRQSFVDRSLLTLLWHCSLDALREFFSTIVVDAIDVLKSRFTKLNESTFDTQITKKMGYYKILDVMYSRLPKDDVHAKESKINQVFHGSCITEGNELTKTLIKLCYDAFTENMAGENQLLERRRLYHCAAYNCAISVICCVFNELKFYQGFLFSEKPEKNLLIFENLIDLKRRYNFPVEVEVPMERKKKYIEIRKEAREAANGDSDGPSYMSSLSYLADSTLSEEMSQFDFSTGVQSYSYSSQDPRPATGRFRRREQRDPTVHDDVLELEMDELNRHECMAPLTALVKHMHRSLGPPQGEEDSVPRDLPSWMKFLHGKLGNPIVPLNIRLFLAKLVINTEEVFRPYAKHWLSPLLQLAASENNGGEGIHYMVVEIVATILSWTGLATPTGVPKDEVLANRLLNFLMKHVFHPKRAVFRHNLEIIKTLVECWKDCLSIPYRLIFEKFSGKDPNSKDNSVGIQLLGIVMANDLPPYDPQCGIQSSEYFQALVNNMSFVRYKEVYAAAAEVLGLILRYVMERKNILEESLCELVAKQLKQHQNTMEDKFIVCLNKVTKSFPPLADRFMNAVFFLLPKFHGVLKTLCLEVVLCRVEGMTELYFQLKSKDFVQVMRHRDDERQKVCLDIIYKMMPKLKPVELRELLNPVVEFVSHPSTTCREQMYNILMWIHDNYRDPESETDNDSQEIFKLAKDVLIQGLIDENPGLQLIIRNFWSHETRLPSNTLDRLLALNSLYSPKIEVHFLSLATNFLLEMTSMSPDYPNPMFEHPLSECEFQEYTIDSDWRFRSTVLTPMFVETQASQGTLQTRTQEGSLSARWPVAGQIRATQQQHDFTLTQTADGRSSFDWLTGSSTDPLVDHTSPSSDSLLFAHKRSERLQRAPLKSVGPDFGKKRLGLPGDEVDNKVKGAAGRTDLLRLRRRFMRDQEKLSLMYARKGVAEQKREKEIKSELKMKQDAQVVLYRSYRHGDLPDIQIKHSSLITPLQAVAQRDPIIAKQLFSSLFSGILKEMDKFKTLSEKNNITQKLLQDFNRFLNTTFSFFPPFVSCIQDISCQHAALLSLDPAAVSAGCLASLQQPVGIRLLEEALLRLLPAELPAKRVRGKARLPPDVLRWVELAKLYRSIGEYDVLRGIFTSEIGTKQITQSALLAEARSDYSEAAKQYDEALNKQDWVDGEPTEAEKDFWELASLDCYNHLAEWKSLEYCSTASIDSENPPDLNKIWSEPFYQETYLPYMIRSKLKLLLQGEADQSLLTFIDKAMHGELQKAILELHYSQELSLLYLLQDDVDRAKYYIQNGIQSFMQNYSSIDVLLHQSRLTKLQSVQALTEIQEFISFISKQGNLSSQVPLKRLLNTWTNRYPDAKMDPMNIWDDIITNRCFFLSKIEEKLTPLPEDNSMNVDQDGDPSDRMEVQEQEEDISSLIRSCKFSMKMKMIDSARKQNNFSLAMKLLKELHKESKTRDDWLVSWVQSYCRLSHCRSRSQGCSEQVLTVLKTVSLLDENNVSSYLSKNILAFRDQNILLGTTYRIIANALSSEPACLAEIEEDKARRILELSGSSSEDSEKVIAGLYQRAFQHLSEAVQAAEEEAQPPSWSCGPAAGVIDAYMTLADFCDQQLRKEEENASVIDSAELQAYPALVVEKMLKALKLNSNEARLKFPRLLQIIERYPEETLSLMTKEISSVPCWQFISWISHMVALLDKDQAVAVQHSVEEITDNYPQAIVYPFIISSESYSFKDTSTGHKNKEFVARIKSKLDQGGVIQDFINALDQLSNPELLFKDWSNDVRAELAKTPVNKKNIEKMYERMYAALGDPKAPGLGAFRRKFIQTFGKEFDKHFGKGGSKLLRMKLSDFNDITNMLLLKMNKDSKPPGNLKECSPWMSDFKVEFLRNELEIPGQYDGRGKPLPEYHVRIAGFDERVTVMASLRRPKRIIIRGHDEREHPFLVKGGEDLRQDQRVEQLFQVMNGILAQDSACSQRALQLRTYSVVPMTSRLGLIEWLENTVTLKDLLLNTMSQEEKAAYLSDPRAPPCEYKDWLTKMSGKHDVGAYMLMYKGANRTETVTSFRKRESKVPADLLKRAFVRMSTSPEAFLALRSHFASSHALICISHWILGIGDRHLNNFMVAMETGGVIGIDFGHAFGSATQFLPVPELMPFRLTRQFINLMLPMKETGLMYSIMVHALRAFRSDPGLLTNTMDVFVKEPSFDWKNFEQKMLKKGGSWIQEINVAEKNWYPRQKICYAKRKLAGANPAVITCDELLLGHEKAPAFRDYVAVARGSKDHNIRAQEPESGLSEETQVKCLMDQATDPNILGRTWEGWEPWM

SMILES: COc1cc(-c2cccc3c(=O)cc(N4CCOCC4)oc23)ccc1NC(=O)CN1CCOCC1
- IC50 [1]: 290 nM
- IC50 [2]: 350 nM

SMILES: O=C(CN1CCOCC1)Nc1ccc(-c2cccc3c(=O)cc(N4CCOCC4)oc23)cc1OCC1CC1
- IC50 [1]: 8 nM
- IC50 [2]: 70 nM

SMILES: COCCOc1cc(-c2cccc3c(=O)cc(N4CCOCC4)oc23)ccc1NC(=O)CN1CCOCC1
- IC50 [1]: 2600 nM
- IC50 [2]: 1500 nM

SMILES: CC1(COc2cc(-c3cccc4c(=O)cc(N5CCOCC5)oc34)ccc2NC(=O)CN2CCOCC2)CCC1
- IC50 [1]: 110 nM
- IC50 [2]: 270 nM

SMILES: NC(=O)COc1cc(-c2cccc3c(=O)cc(N4CCOCC4)oc23)ccc1NC(=O)CN1CCOCC1
- IC50 [1]: 3300 nM
- IC50 [2]: 1100 nM

SMILES: NCCOc1cc(-c2cccc3c(=O)cc(N4CCOCC4)oc23)ccc1NC(=O)CN1CCOCC1
- IC50 [1]: 12000 nM
- IC50 [2]: 3000 nM

SMILES: CCOc1cc(-c2cccc3c(=O)cc(N4CCOCC4)oc23)ccc1NC(=O)CN1CCOCC1
- IC50 [1]: 280 nM
- IC50 [2]: 470 nM

SMILES: CC(C)Oc1cc(-c2cccc3c(=O)cc(N4CCOCC4)oc23)ccc1NC(=O)CN1CCOCC1
- IC50 [1]: 330 nM
- IC50 [2]: 290 nM

SMILES: O=C(CN1CCOCC1)Nc1ccc(-c2cccc3c(=O)cc(N4CCOCC4)oc23)cc1OCCN1CCCC1
- IC50 [1]: > 10000 nM
- IC50 [2]: 4400 nM

SMILES: CC(C)COc1cc(-c2cccc3c(=O)cc(N4CCOCC4)oc23)ccc1NC(=O)CN1CCOCC1
- IC50 [1]: 180 nM
- IC50 [2]: 150 nM

SMILES: O=c1cc(N2CCOCC2)oc2c(-c3ccccc3)cccc12 [LY-294002]
- IC50 [1]: 1300 nM

SMILES: O=C(CN1CCOCC1)Nc1ccc(-c2cccc3c(=O)cc(N4CCOCC4)oc23)cc1O
- IC50 [1]: 80 nM
- IC50 [2]: 430 nM

SMILES: O=C(CN1CCOCC1)Nc1ccc(-c2cccc3c(=O)cc(N4CCOCC4)oc23)cc1OCC1CCC1
- IC50 [1]: 160 nM
- IC50 [2]: 290 nM

SMILES: O=C(CN1CCOCC1)Nc1ccc(-c2cccc3c(=O)cc(N4CCOCC4)oc23)cc1OCCO
- IC50 [1]: 1000 nM
- IC50 [2]: 1600 nM

SMILES: O=C(CN1CCOCC1)Nc1ccc(-c2cccc3c(=O)cc(N4CCOCC4)oc23)cc1OCCC1CC1
- IC50 [1]: 500 nM
- IC50 [2]: 400 nM

SMILES: CC1(COc2cc(-c3cccc4c(=O)cc(N5CCOCC5)oc34)ccc2NC(=O)CN2CCOCC2)COC1
- IC50 [1]: 690 nM
- IC50 [2]: 300 nM

SMILES: O=c1cc(N2CCOCC2)oc2c(-c3cccc4c3sc3ccccc34)cccc12
- IC50 [1]: 28 nM
- IC50 [2]: 130 nM

SMILES: C=CCOc1cc(-c2cccc3c(=O)cc(N4CCOCC4)oc23)ccc1NC(=O)CN1CCOCC1
- IC50 [1]: 170 nM
- IC50 [2]: 150 nM

SMILES: O=C(CN1CCOCC1)Nc1ccc(-c2cccc3c(=O)cc(N4CCOCC4)oc23)cc1-c1ccccc1
- IC50 [1]: 14 nM
- Ratio (HeLa [3]): 11
- Ratio (HeLa [4]): 8
